Article PMC7055011 (Bioorganic & medicinal chemistry, 2019)

Tests used:
hAPJ = biological target: T1, hAPJ (Homo sapiens, UniProt P35414); test: Lance cAMP accumulation assay; format: cell-based
T1 sequence (P35414 1-380): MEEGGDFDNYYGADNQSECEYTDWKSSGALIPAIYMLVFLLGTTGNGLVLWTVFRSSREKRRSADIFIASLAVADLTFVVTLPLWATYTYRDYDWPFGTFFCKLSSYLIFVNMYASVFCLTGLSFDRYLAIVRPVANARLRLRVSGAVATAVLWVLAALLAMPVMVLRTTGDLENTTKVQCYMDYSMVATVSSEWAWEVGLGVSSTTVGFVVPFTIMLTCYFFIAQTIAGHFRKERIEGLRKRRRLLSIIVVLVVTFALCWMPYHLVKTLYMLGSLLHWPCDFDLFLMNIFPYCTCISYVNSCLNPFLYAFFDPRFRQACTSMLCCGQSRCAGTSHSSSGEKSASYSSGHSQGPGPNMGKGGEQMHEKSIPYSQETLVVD

[1] = Human liver microsomal stability; format: in vitro ADME; conditions: for CLint scaled at 2 h, 1 µM: human, microsomes, pH 7.4
[2] = cited from earlier work
[3] = cited from earlier work; remark: listed apart in the source
[4] = system: 5-HT1A, α2C adrenergic, mu-opioid, benzylpiperazine receptors and norepinephrine transporter; conditions: cited from earlier work
apelin receptor = conditions: cited from earlier work
[5] = biological target: T2, human angiotensin II receptor, type I (Homo sapiens, UniProt P30556); conditions: cited from earlier work
T2 sequence (P30556 1-359): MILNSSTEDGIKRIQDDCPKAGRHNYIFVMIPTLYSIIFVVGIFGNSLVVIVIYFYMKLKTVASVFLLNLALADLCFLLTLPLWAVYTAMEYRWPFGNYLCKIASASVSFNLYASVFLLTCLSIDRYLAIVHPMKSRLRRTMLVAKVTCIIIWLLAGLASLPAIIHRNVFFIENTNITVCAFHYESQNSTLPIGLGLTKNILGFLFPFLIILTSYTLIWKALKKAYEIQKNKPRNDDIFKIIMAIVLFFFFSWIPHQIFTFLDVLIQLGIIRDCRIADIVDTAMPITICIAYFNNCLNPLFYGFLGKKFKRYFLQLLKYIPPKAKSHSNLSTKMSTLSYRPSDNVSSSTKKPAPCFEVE

NTR2 = conditions: compared with hit 8; cited from earlier work

Question: For `COc1cccc(OC)c1-c1cc(C(=O)N[C@@H](CCC2CCCCC2)CC(=O)O)nn1C1CCCCCCC1` [Compound 16, (S)-5-Cyclohexyl-3-(1-cyclooctyl-5-(2,6-dimethoxyphenyl)-1H-pyrazole-3-carboxamido)pentanoic acid], which “Activity in cAMP assay” value (hAPJ) is on record?
Answer: completely inactive

Question: Which CLint scaled at 2 h, 1 µM [1] does the source give for `CCOc1ccc2c(C)cc(=O)oc2c1` [7-ethoxy-4-methylcoumarin] here?
Answer: 325 mL/min/kg

Question: Which “Stability in microsomal fractions” value [2] does the source give for `CC1=CC(=O)C(C2CCCCC2)=C/C1=N\OS(=O)(=O)c1ccccc1` [ML233, (E)-2-cyclohexyl-5-methyl-4-(phenylsulfonyloxyimino)cyclohexa-2,5-dienone] here?
Answer: poor

Question: What about the “Solubility” value [3] of the same compound?
Answer: poor solubility

Question: And the “Off-target binding” value [4]?
Answer: significant off-target binding

Question: With `COc1cccc(OC)c1-c1cc(C(=O)N[C@@H](CCC2CCCCC2)CC(=O)O)nn1CC1CCCCC1` [Compound 15, (S)-5-Cyclohexyl-3-(1-(cyclohexylmethyl)-5-(2,6-dimethoxyphenyl)-1H-pyrazole-3-carboxamido)pentanoic acid] as the compound, how does the “Activity in cAMP assay” value (hAPJ) read?
Answer: completely inactive

Question: Which “Bias towards Gαi signaling over receptor internalization” value (apelin receptor) does the source give for `CCC(CC)n1c(Cc2cccs2)nc2cc(C(=O)N[C@H](CC(=O)O)CC(C)C)ccc21` [CMF-019, (S)-5-Methyl-3-{1-(pentan-3-yl)-2-(thiophen-2-ylmethyl)-1H-benzo[d]imidazole5-carboxamido}hexanoic Acid] here?
Answer: ~ 6000 fold

Question: What about the “Bias towards Gαi signaling over β-arrestin recruitment” value (apelin receptor) of the same compound?
Answer: ~ 400 fold

Question: For `COc1cccc(OC)c1-c1cc(C(=O)N[C@@H](CCC2CCCCC2)CC(=O)O)nn1-c1ccc(F)cc1` [Compound 9, (S)-5-cyclohexyl-3-(5-(2,6-dimethoxyphenyl)-1-(4-fluorophenyl)-1H-pyrazole-3-carboxamido)pentanoic acid], which “Stability in human liver microsomes” value [1] is on record?
Answer: excellent stability

Question: What about the CLint scaled at 2 h, 1 µM [1] of the same compound?
Answer: 5 mL/min/kg

Question: And the “Activity at AT1 receptor, previously reported” value [5]?
Answer: did not activate or inhibit

Question: What about the “Off-target NTR2 activity” value (NTR2) of the same compound?
Answer: significantly reduced
